Biological target: T1, Muscarinic acetylcholine receptor M4 (Homo sapiens, UniProt P08173)
T1 sequence (P08173 whole entry): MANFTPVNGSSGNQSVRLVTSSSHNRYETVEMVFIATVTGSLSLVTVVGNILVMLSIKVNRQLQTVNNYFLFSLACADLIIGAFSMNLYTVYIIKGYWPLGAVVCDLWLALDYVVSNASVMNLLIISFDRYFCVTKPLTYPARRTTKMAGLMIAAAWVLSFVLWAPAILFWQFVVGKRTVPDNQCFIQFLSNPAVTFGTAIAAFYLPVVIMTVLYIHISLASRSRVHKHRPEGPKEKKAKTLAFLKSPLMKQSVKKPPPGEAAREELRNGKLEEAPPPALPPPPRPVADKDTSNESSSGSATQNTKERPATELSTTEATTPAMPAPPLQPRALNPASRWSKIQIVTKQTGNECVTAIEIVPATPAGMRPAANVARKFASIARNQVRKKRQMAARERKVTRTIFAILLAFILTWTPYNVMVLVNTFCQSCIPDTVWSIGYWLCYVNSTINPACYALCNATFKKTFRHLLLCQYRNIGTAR
Experiment: ChEBML_1696020
Text: Positive allosteric modulation of human M4 receptor expressed in CHO cells co-expressing Gqi5 assessed as increase in acetylcholine-induced calcium mobilization

- EC50: 897 nM
SMILES: N#Cc1cnc2ccc(F)cc2c1N1CCC(C(=O)NCc2ccccc2)CC1
